Source: patent US9365512B2, “Isoindoline derivatives, pharmaceutical compositions containing them, and their use in therapy” (AbbVie Deutschland GmbH & Co. KG, priority 2012, dated 2016)

Legend:
[1] = biological target: T1, human GlyT1c transporter (Homo sapiens, UniProt P48067); experiment: Radioligand binding assay using recombinant CHO cell membranes expressing human GlyT1; conditions: read-out: radioligand binding Kiapp
T1 construct: expressed in transfected cells; host or cells: CHO cells (recombinant; membranes)
T1 sequence (P48067 1-706): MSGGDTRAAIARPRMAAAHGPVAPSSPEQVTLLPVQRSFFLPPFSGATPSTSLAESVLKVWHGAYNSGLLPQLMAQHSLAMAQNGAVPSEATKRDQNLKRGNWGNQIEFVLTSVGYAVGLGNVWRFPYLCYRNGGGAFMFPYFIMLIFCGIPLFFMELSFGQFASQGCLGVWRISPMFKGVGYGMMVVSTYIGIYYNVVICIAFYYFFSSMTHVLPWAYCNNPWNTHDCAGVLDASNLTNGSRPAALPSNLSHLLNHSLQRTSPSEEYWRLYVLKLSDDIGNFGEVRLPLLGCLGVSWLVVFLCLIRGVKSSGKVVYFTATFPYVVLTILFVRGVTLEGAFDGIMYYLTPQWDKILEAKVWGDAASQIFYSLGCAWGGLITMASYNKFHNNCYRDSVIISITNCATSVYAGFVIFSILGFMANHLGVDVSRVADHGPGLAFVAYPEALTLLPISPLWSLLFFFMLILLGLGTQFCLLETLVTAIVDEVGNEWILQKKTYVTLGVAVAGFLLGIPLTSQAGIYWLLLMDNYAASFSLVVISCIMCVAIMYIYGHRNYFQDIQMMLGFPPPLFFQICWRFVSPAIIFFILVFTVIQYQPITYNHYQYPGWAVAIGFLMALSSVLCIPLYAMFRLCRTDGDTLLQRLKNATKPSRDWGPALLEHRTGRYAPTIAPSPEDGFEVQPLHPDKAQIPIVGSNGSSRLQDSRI
Experimental: 2. Radioligand Binding Assays Using Recombinant CHO Cell Membranes Expressing Human GlyT1:
Radioligand binding to human GlyT1c transporter-expressing membranes was determined as described in Mezler et al., Molecular Pharmacology 74:1705-1715, 2008.

[2] = Metabolic stability in human liver microsomes (microsomal clearance); format: in vitro ADME; conditions: 0.5 μM test substance, 0.25 mg microsomal protein/ml, pH 7.4, 37° C., NADPH
Experimental: The metabolic stability of a compound can be measured for example by incubating a solution of this compound with liver microsomes from particular species (for example rat, dog or human) and determining the half-life of the compound under these conditions (RS Obach, Curr Opin Drug Discov Devel. 2001, 4, 36-44). It is possible in this connection to conclude from an observed longer half-life that the metabolic stability of the compound is improved. The stability in the presence of human liver microsomes is of particular interest because it makes it possible to predict the metabolic degradation of the compound in the human liver. Compounds with increased metabolic stability (measured in the liver microsome test) are therefore probably also degraded more slowly in the liver. The slower metabolic degradation in the liver may lead to higher and/or longer-lasting concentrations (active levels) of the compound in the body, so that the elimination half-life of the compounds of the invention is increased. Increased and/or longer-lasting active levels may lead to a better activity of the compound in therapeutic treatment. […]
Metabolic stability was determined as follows:
0.5 μM test substance was preincubated together with human liver microsomes (0.25 mg of microsomal protein/ml) in 0.05 M potassium phosphate buffer of pH 7.4 in microtiter plates at 37° C. for 5 min. […] The samples were frozen until analyzed. The remaining concentration of undegraded test substance was determined by LC MSMS. The half-life (T½) was determined from the gradient of the signal of test substance/unit time plot, allowing to calculate the half-life of the test substance, assuming first order kinetics, from the decrease in the concentration of the compound with time. The microsomal clearance (mCl) was calculated from mCl=ln 2/T½/(content of microsomal protein in mg/ml)×1000 (modified from references: Di, The Society for Biomolecular Screening, 2003, 453-462; Obach, DMD, 1999 vol 27. N 11, 1350-1359).

Row | SMILES | Ki [1] | human mCl [2]
1 | Cn1cnc(S(=O)(=O)NCCOc2ccc3c(c2)C(Cc2ccccc2)NC3)c1 (stereo not shown) [Example 5, N-[2-(3-Benzylisoindolin-5-yl)oxyethyl]-1-methyl-1H-imidazole-4-sulfonamide] | < 100 nM | <1 µL/min/mg
2 | Cn1cc(S(=O)(=O)NCCOc2ccc3c(c2)C(Cc2ccccc2)NC3)cn1 (stereo not shown) [Example 7, N-[2-(3-Benzylisoindolin-5-yl)oxyethyl]-1-methyl-1H-pyrazole-4-sulfonamide] | < 100 nM | <10 µL/min/mg
